{
  "source": "patent US20250228239A1",
  "about": "“MOLECULES HAVING PESTICIDAL UTILITY, AND INTERMEDIATES, COMPOSITIONS, AND PROCESSES, RELATED THERETO” (priority 2024, published 2025)",
  "key": {"[1]": {"system": "Cabbage Looper (Trichoplusia ni, TRIPNI)", "assay": "Bioassays on Cabbage Looper (CL), 128-well diet tray assay", "format": "in vivo", "settings": "Trichoplusia ni; Cabbage Looper, Table ABC / ABC-DP rating; read-out: CL rating", "in_short": "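Percent mortality, averaged across eight replicate wells, after second-instar larvae (1–5 per well) fed for five to seven days on diet dosed at 50 μg/cm^2. Compound was applied in acetone-water 90:10 and dried; trays kept vented at 25° C under 14:10 photoperiod.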"}, "[2]": {"system": "Beet Armyworm (Spodoptera exigua, LAPHEG)", "assay": "Bioassays on Beet Armyworm (BAW), 128-well diet tray assay", "format": "in vivo", "settings": "Spodoptera exigua; Beet Armyworm, Table ABC / ABC-DP rating; read-out: BAW rating", "in_short": "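Diet-overlay assay: 50 μg/cm^2 compound applied in 90:10 acetone-water to artificial diet, allowed to dry, then infested with 1–5 L2 larvae/well; 8 wells/compound; covered, vented; 25° C., 14:10 L:D, 5–7 d; % mortality per well, averaged.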"}},
  "data": [
    {"molecule": "O=C(CC(C(F)(F)F)C(F)(F)F)Nc1c(F)ccc(NC(=O)c2cc(NC(=O)[C@H]3[C@H](c4ccc(F)c(C(F)(F)F)c4)C3(Cl)Cl)ccc2Cl)c1F", "note": "[F1833, 2-Chloro-5-((1R,3R)-2,2-dichloro-3-(4-fluoro-3-(trifluoromethyl)phenyl)cyclopropane-1-carboxamido)-N-(2,4-difluoro-3-(4,4,4-trifluoro-3-(trifluoromethyl)butanamido)phenyl)benzamide]", "values": [
      {"measurement": "pest or weed control at 50 µg/cm2", "setting": "[1]", "result": "50 to 100", "unit": "%"},
      {"measurement": "pest or weed control at 50 µg/cm2", "setting": "[2]", "result": "50 to 100", "unit": "%"}
    ]},
    {"molecule": "O=C(Nc1ccc(F)c(NC(=O)C(F)(F)C(F)(F)OC(F)(F)F)c1F)c1cc(NC(=O)[C@H]2[C@H](c3ccc(F)c(C(F)(F)F)c3)C2(Cl)Cl)ccc1Cl", "note": "[F1834, 2-Chloro-5-((1R,3R)-2,2-dichloro-3-(4-fluoro-3-(trifluoromethyl)phenyl)cyclopropane-1-carboxamido)-N-(2,4-difluoro-3-(2,2,3,3-tetrafluoro-3-(trifluoromethoxy)propanamido)phenyl)benzamide]", "values": [
      {"measurement": "pest or weed control at 50 µg/cm2", "setting": "[1]", "result": "50 to 100", "unit": "%"},
      {"measurement": "pest or weed control at 50 µg/cm2", "setting": "[2]", "result": "50 to 100", "unit": "%"}
    ]},
    {"molecule": "CC(CC(F)(F)F)C(=O)Nc1c(F)ccc(NC(=O)c2cc(NC(=O)[C@H]3[C@H](c4ccc(F)c(C(F)(F)F)c4)C3(Cl)Cl)ccc2Cl)c1F", "note": "(stereo partly drawn) [F1835, 2-Chloro-5-((1R,3R)-2,2-dichloro-3-(4-fluoro-3-(trifluoromethyl)phenyl)cyclopropane-1-carboxamido)-N-(2,4-difluoro-3-(4,4,4-trifluoro-2-methylbutanamido)phenyl)benzamide]", "values": [
      {"measurement": "pest or weed control at 50 µg/cm2", "setting": "[1]", "result": "50 to 100", "unit": "%"},
      {"measurement": "pest or weed control at 50 µg/cm2", "setting": "[2]", "result": "50 to 100", "unit": "%"}
    ]},
    {"molecule": "O=C(Nc1ccc(F)c(NC(=O)C2CCOC2C(F)(F)F)c1F)c1cc(NC(=O)[C@H]2[C@H](c3ccc(F)c(C(F)(F)F)c3)C2(Cl)Cl)ccc1Cl", "note": "(stereo partly drawn) [F1837, N-(3-(2-Chloro-5-((1R,3R)-2,2-dichloro-3-(4-fluoro-3-(trifluoromethyl)phenyl)cyclopropane-1-carboxamido)benzamido)-2,6-difluorophenyl)-2-(trifluoromethyl)tetrahydrofuran-3-carboxamide]", "values": [
      {"measurement": "pest or weed control at 50 µg/cm2", "setting": "[1]", "result": "50 to 100", "unit": "%"},
      {"measurement": "pest or weed control at 50 µg/cm2", "setting": "[2]", "result": "50 to 100", "unit": "%"}
    ]},
    {"molecule": "CCCNc1c(F)ccc(NC(=O)c2cc(NC(=O)[C@H]3[C@H](c4ccc(F)c(C(F)(F)F)c4)C3(Cl)Cl)ccc2Cl)c1F", "note": "[F1838, 2-Chloro-5-((1R,3R)-2,2-dichloro-3-(4-fluoro-3-(trifluoromethyl)phenyl)cyclopropane-1-carboxamido)-N-(2,4-difluoro-3-(propylamino)phenyl)benzamide]", "values": [
      {"measurement": "pest or weed control at 50 µg/cm2", "setting": "[1]", "result": "50 to 100", "unit": "%"},
      {"measurement": "pest or weed control at 50 µg/cm2", "setting": "[2]", "result": "50 to 100", "unit": "%"}
    ]},
    {"molecule": "O=C(Nc1ccc(F)c(NC(=O)C(F)(F)C(F)C(F)(F)F)c1F)c1cc(NC(=O)[C@H]2[C@H](c3ccc(F)c(C(F)(F)F)c3)C2(Cl)Cl)ccc1Cl", "note": "(stereo partly drawn) [F1839, 2-Chloro-5-((1R,3R)-2,2-dichloro-3-(4-fluoro-3-(trifluoromethyl)phenyl)cyclopropane-1-carboxamido)-N-(2,4-difluoro-3-(2,2,3,4,4,4-hexafluorobutanamido)phenyl)benzamide]", "values": [
      {"measurement": "pest or weed control at 50 µg/cm2", "setting": "[1]", "result": "50 to 100", "unit": "%"},
      {"measurement": "pest or weed control at 50 µg/cm2", "setting": "[2]", "result": "50 to 100", "unit": "%"}
    ]},
    {"molecule": "O=C(CC(=O)C(F)(F)F)Nc1c(F)ccc(NC(=O)c2cc(NC(=O)[C@H]3[C@H](c4ccc(F)c(C(F)(F)F)c4)C3(Cl)Cl)ccc2Cl)c1F", "note": "[F1840, 2-Chloro-5-((1R,3R)-2,2-dichloro-3-(4-fluoro-3-(trifluoromethyl)phenyl)cyclopropane-1-carboxamido)-N-(2,4-difluoro-3-(4,4,4-trifluoro-3-oxobutanamido)phenyl)benzamide]", "values": [
      {"measurement": "pest or weed control at 50 µg/cm2", "setting": "[1]", "result": "50 to 100", "unit": "%"},
      {"measurement": "pest or weed control at 50 µg/cm2", "setting": "[2]", "result": "50 to 100", "unit": "%"}
    ]},
    {"molecule": "CC(C)CC(=O)Nc1c(F)ccc(NC(=O)c2cc(NC(=O)[C@H]3[C@H](c4ccc(F)c(C(F)(F)F)c4)C3(Cl)Cl)ccc2Cl)c1F", "note": "[F1845, 2-Chloro-5-((1R,3R)-2,2-dichloro-3-(4-fluoro-3-(trifluoromethyl)phenyl)cyclopropane-1-carboxamido)-N-(2,4-difluoro-3-(3-methylbutanamido)phenyl)benzamide]", "values": [
      {"measurement": "pest or weed control at 50 µg/cm2", "setting": "[1]", "result": "50 to 100", "unit": "%"},
      {"measurement": "pest or weed control at 50 µg/cm2", "setting": "[2]", "result": "50 to 100", "unit": "%"}
    ]},
    {"molecule": "O=C(COCC(F)(F)F)Nc1c(F)ccc(NC(=O)c2cc(NC(=O)[C@H]3[C@H](c4ccc(F)c(C(F)(F)F)c4)C3(Cl)Cl)ccc2Cl)c1F", "note": "[F1846, 2-Chloro-5-((1R,3R)-2,2-dichloro-3-(4-fluoro-3-(trifluoromethyl)phenyl)cyclopropane-1-carboxamido)-N-(2,4-difluoro-3-(2-(2,2,2-trifluoroethoxy)acetamido)phenyl)benzamide]", "values": [
      {"measurement": "pest or weed control at 50 µg/cm2", "setting": "[1]", "result": "50 to 100", "unit": "%"},
      {"measurement": "pest or weed control at 50 µg/cm2", "setting": "[2]", "result": "50 to 100", "unit": "%"}
    ]},
    {"molecule": "O=C(Nc1ccc(F)c(NC(=O)C2(C(F)(F)F)CCC2)c1F)c1cc(NC(=O)[C@H]2[C@H](c3ccc(F)c(C(F)(F)F)c3)C2(Cl)Cl)ccc1Cl", "note": "[F1849, 2-Chloro-5-((1R,3R)-2,2-dichloro-3-(4-fluoro-3-(trifluoromethyl)phenyl)cyclopropane-1-carboxamido)-N-(2,4-difluoro-3-(1-(trifluoromethyl)cyclobutane-1-carboxamido)phenyl)benzamide]", "values": [
      {"measurement": "pest or weed control at 50 µg/cm2", "setting": "[1]", "result": "50 to 100", "unit": "%"},
      {"measurement": "pest or weed control at 50 µg/cm2", "setting": "[2]", "result": "50 to 100", "unit": "%"}
    ]},
    {"molecule": "CC(=O)C1(C(=O)Nc2c(F)ccc(NC(=O)c3cc(NC(=O)[C@H]4[C@H](c5ccc(F)c(C(F)(F)F)c5)C4(Cl)Cl)ccc3Cl)c2F)CC1", "note": "[F1850, N-(3-(1-Acetylcyclopropane-1-carboxamido)-2,4-difluorophenyl)-2-chloro-5-((1R,3R)-2,2-dichloro-3-(4-fluoro-3-(trifluoromethyl)phenyl)cyclopropane-1-carboxamido)benzamide]", "values": [
      {"measurement": "pest or weed control at 50 µg/cm2", "setting": "[1]", "result": "50 to 100", "unit": "%"},
      {"measurement": "pest or weed control at 50 µg/cm2", "setting": "[2]", "result": "50 to 100", "unit": "%"}
    ]},
    {"molecule": "O=C(CCBr)Nc1c(F)ccc(NC(=O)c2cc(NC(=O)[C@H]3[C@H](c4ccc(F)c(C(F)(F)F)c4)C3(Cl)Cl)ccc2Cl)c1F", "note": "[F1851, N-(3-(3-Bromopropanamido)-2,4-difluorophenyl)-2-chloro-5-((1R,3R)-2,2-dichloro-3-(4-fluoro-3-(trifluoromethyl)phenyl)cyclopropane-1-carboxamido)benzamide]", "values": [
      {"measurement": "pest or weed control at 50 µg/cm2", "setting": "[1]", "result": "50 to 100", "unit": "%"},
      {"measurement": "pest or weed control at 50 µg/cm2", "setting": "[2]", "result": "50 to 100", "unit": "%"}
    ]},
    {"molecule": "C#CCCC(=O)Nc1c(F)ccc(NC(=O)c2cc(NC(=O)[C@H]3[C@H](c4ccc(F)c(C(F)(F)F)c4)C3(Cl)Cl)ccc2Cl)c1F", "note": "[F1855]", "values": [
      {"measurement": "pest or weed control at 50 µg/cm2", "setting": "[1]", "result": "50 to 100", "unit": "%"},
      {"measurement": "pest or weed control at 50 µg/cm2", "setting": "[2]", "result": "50 to 100", "unit": "%"}
    ]},
    {"molecule": "CC(F)(F)CCC(=O)Nc1c(F)ccc(NC(=O)c2cc(NC(=O)[C@H]3[C@H](c4ccc(Cl)c(Cl)c4)C3(Cl)Cl)ccc2Cl)c1F", "note": "[F1860, 2-Chloro-5-((1R,3R)-2,2-dichloro-3-(3,4-dichlorophenyl)cyclopropane-1-carboxamido)-N-(3-(4,4-difluoropentanamido)-2,4-difluorophenyl)benzamide]", "values": [
      {"measurement": "pest or weed control at 50 µg/cm2", "setting": "[1]", "result": "50 to 100", "unit": "%"},
      {"measurement": "pest or weed control at 50 µg/cm2", "setting": "[2]", "result": "50 to 100", "unit": "%"}
    ]},
    {"molecule": "O=C(CCC(F)(F)C(F)(F)F)Nc1c(F)ccc(NC(=O)c2cc(NC(=O)[C@H]3[C@H](c4ccc(Cl)c(Cl)c4)C3(Cl)Cl)ccc2Cl)c1F", "note": "[F1861, 2-Chloro-5-((1R,3R)-2,2-dichloro-3-(3,4-dichlorophenyl)cyclopropane-1-carboxamido)-N-(2,4-difluoro-3-(4,4,5,5,5-pentafluoropentanamido)phenyl) benzamide]", "values": [
      {"measurement": "pest or weed control at 50 µg/cm2", "setting": "[1]", "result": "50 to 100", "unit": "%"},
      {"measurement": "pest or weed control at 50 µg/cm2", "setting": "[2]", "result": "50 to 100", "unit": "%"}
    ]}
  ]
}
